Measured values taken from patent US8063099B2, “Trans-3-aza-bicyclo[3.1.0]hexane derivatives” (Actelion Pharmaceuticals Ltd., priority 2007, dated 2011).
Read-outs that look alike come from different tables or passages of the source.

Experiments:
[1] = biological target: T1, human orexin-2 receptor (Homo sapiens, UniProt O43614); assay: Intracellular calcium measurements (FLIPR), orexin receptor antagonistic activity; type: cell-based; conditions: CHO cells expressing human orexin-2 receptor, 3 nM orexin-A, read-out: OX2 IC50
T1 construct: expressed in transfected cells; host or cells: Chinese hamster ovary (CHO) cells, G418 selection
T1 sequence (O43614 1-444): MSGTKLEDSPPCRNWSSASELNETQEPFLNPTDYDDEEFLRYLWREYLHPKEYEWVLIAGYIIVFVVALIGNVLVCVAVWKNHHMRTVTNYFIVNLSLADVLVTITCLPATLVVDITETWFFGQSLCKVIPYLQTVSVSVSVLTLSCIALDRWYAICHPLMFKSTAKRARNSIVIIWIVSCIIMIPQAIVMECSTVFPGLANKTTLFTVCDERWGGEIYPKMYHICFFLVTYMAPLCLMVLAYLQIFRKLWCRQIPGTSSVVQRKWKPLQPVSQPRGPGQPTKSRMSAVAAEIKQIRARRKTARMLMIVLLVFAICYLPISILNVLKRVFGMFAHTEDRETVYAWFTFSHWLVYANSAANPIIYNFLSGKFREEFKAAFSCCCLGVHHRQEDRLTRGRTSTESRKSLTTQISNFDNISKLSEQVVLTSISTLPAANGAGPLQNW
Method: (§1) The orexin receptor antagonistic activity of the compounds of formula (I) is determined in accordance with one of the following experimental methods.
(§2) Intracellular Calcium Measurements:
(§3) Chinese hamster ovary (CHO) cells expressing the human orexin-1 receptor and the human orexin-2 receptor, respectively, are grown in culture medium (Ham F-12 with L-Glutamine) containing 300 μg/ml G418, 100 U/ml penicillin, 100 μg/ml streptomycin and 10% heat inactivated fetal calf serum (FCS). The cells are seeded at 20'000 cells/well into 384-well black clear bottom sterile plates (Greiner). The seeded plates are incubated overnight at 37° C. in 5% CO2.
(§4) Human orexin-A as an agonist is prepared as 1 mM stock solution in MeOH:water (1:1), diluted in HBSS containing 0.1% bovine serum albumin (BSA), NaHCO3:0.375 g/l and 20 mM HEPES for use in the assay at a final concentration of 3 nM.
(§5) Antagonists are prepared as 10 mM stock solution in DMSO, then diluted in 384-well plates, first in DMSO, then in HBSS containing 0.1% bovine serum albumin (BSA), NaHCO3: 0.375 g/l and 20 mM HEPES.
(§6) On the day of the assay, 50 μl of staining buffer (HBSS containing 1% FCS, 20 mM HEPES, NaHCO3: 0.375 g/l, 5 mM probenecid (Sigma) and 3 μM of the fluorescent calcium indicator fluo-4 AM (1 mM stock solution in DMSO, containing 10% pluronic) is added to each well.
(§7) The 384-well cell-plates are incubated for 50 min at 37° C. in 5% CO2 followed by equilibration at RT for 30-120 min before measurement.
(§8) Within the Fluorescent Imaging Plate Reader (FLIPR2 or FLIPR Tetra, Molecular Devices), antagonists are added to the plate in a volume of 10 μl/well, incubated for 10 min and finally 10 μl/well of agonist is added. Fluorescence is measured for each well at 1 second intervals, and the height of each fluorescence peak is compared to the height of the fluorescence peak induced by 3 nM orexin-A with vehicle in place of antagonist. For each antagonist, the IC50 value (the concentration of compound needed to inhibit 50% of the agonistic response) is determined. With the FLIPR Tetra, non-optimized and optimized conditions were used. Optimized conditions were achieved by adjustment of pipetting speed and cell splitting regime. The calculated IC50 values of the compounds may fluctuate depending on the daily cellular assay performance. Fluctuations of this kind are known to those skilled in the art.

[2] = biological target: T2, human orexin-1 receptor (Homo sapiens, UniProt O43613); assay: as above; type: cell-based; conditions: CHO cells expressing human orexin-1 receptor, 3 nM orexin-A, read-out: OX1 IC50
T2 construct: expressed in transfected cells; host or cells: Chinese hamster ovary (CHO) cells, G418 selection
T2 sequence (O43613 1-425): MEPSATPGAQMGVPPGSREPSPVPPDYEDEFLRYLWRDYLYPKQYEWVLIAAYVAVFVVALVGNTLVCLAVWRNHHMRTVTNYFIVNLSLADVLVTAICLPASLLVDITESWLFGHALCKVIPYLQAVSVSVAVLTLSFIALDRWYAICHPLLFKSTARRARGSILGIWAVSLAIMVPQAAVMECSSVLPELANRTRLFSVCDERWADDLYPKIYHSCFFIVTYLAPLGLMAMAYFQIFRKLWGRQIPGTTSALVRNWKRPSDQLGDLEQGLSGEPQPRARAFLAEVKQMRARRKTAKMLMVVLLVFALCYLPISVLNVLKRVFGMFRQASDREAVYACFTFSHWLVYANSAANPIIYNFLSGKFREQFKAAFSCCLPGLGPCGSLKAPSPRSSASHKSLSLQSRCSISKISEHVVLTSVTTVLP
Method: as §1, §2, §3, §4, §5, §6, §7, §8

[3] = FLIPR Tetra, non-optimized conditions
[4] = FLIPR Tetra, optimized conditions

O=C(NC[C@@H]1[C@H]2C[C@H]2CN1C(=O)c1ccccc1-c1ccccc1)c1cccc2occc12 [Example 2, Benzofuran-4-carboxylic acid[(1S,2S,5R)-3-(biphenyl-2-carbonyl)-3-aza-bicyclo[3.1.0]hex-2-ylmethyl]-amide]
IC50 ([1]; FLIPR2): 0.102 µM | IC50 ([2]; FLIPR2): 0.034 µM

N#Cc1ccc(-c2sc(C3CC3)nc2C(=O)N2C[C@@H]3C[C@@H]3[C@H]2CNC(=O)c2cccc(Cl)c2)cc1 [Example 186, 3-Chloro-N-{(1S,2S,5R)-3-[5-(4-cyano-phenyl)-2-cyclopropyl-thiazole-4-carbonyl]-3-aza-bicyclo[3.1.0]hex-2-ylmethyl}-benzamide]
IC50 [1, 3]: 0.296 µM | IC50 [2, 3]: 3.26 µM

Cc1nc(C(=O)N2C[C@@H]3C[C@@H]3[C@H]2CNC(=O)c2cccc3c2OC(C)(C)C3)c(-c2cccc(Cl)c2)s1 [Example 73, 2,2-Dimethyl-2,3-dihydro-benzofuran-7-carboxylic Acid{(1S,2S,5R)-3-[5-(3-chloro-phenyl)-2-methyl-thiazole-4-carbonyl]-3-aza-bicyclo[3.1.0]hex-2-ylmethyl}-amide]
IC50 ([1]; FLIPR2): 0.009 µM | IC50 ([2]; FLIPR2): 0.021 µM

CCn1nc(C)cc1C(=O)NC[C@@H]1[C@H]2C[C@H]2CN1C(=O)c1nc(C2CC2)sc1-c1cccc(C)c1 [Example 237, 2-Ethyl-5-methyl-2H-pyrazole-3-carboxylic acid [(1S,2S,5R)-3-(2-cyclopropyl-5-m-tolyl-thiazole-4-carbonyl)-3-aza-bicyclo[3.1.0]hex-2-ylmethyl]-amide]
IC50 [1, 4]: 0.038 µM | IC50 [2, 4]: 0.029 µM

Cc1nc(C(=O)N2C[C@@H]3C[C@@H]3[C@H]2CNC(=O)c2c(C)nc3sccn23)c(-c2ccccc2C)s1 [Example 11, 6-Methyl-imidazo[2,1-b]thiazole-5-carboxylic acid[(1S,2S,5R)-3-(2-methyl-5-o-tolyl-thiazole-4-carbonyl)-3-aza-bicyclo[3.1.0]hex-2-ylmethyl]-amide]
IC50 ([1]; FLIPR2): 0.066 µM | IC50 ([2]; FLIPR2): 0.014 µM

Nc1nc(C(=O)N2C[C@@H]3C[C@@H]3[C@H]2CNC(=O)c2cnc3ccccn23)c(-c2cccc(F)c2)s1 [Example 118, Imidazo[1,2-a]pyridine-3-carboxylic Acid{(1S,2S,5R)-3-[2-amino-5-(3-fluoro-phenyl)-thiazole-4-carbonyl]-3-aza-bicyclo[3.1.0]hex-2-ylmethyl}-amide]
IC50 ([1]; FLIPR2): 0.041 µM | IC50 ([2]; FLIPR2): 0.225 µM

Cc1ccc(-c2ccsc2C(=O)N2C[C@@H]3C[C@@H]3[C@H]2CNC(=O)c2c(C)nc3sccn23)cc1 [Example 222, 6-Methyl-imidazo[2,1-b]thiazole-5-carboxylic acid [(1S,2S,5R)-3-(3-p-tolyl-thiophene-2-carbonyl)-3-aza-bicyclo[3.1.0]hex-2-ylmethyl]-amide]
IC50 [1, 4]: 0.079 µM | IC50 [2, 4]: 0.096 µM

Cc1cccc(-c2sc(C)nc2C(=O)N2C[C@@H]3C[C@@H]3[C@H]2CNC(=O)c2cccc3ccccc23)c1 [Example 52, Naphthalene-1-carboxylic acid[(1S,2S,5R)-3-(2-methyl-5-m-tolyl-thiazole-4-carbonyl)-3-aza-bicyclo[3.1.0]hex-2-ylmethyl]-amide]
IC50 ([1]; FLIPR2): 0.228 µM | IC50 ([2]; FLIPR2): 0.155 µM
